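Assay format: 96-well plates, 48-hour exposure. Here, GI50 denotes the concentration required for 50% inhibition of growth. Definition used: TGI = concentration required for complete inhibition of growth.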
Columns and labels:
Assay in all cases: growth of human tumour cells (NCI), 48 h
786-0 renal = test system: 786-0 renal
A498 renal = test system: A498 renal
A549 NSCLC = test system: A549 NSCLC
ACHN renal = test system: ACHN renal
BT-549 breast = test system: BT-549 breast
CAKI-1 renal = test system: CAKI-1 renal
CCRF-CEM leukemia = test system: CCRF-CEM leukemia
COLO 205 colon = test system: COLO 205 colon
DU-145 prostate = test system: DU-145 prostate
EKVX NSCLC = test system: EKVX NSCLC
HCC-2998 colon = test system: HCC-2998 colon
HCT-116 colon = test system: HCT-116 colon
HCT-15 colon = test system: HCT-15 colon
HL-60(TB) leukemia = test system: HL-60(TB) leukemia
HOP-62 NSCLC = test system: HOP-62 NSCLC
HOP-92 NSCLC = test system: HOP-92 NSCLC
HS 578T breast = test system: HS 578T breast
HT29 colon = test system: HT29 colon
IGROV1 ovarian = test system: IGROV1 ovarian
K-562 leukemia = test system: K-562 leukemia
KM12 colon = test system: KM12 colon
LOX IMVI melanoma = test system: LOX IMVI melanoma
MALME-3M melanoma = test system: MALME-3M melanoma
MDA-MB-231 breast = test system: MDA-MB-231 breast
MOLT-4 leukemia = test system: MOLT-4 leukemia
NCI-H226 lung = test system: NCI-H226 lung
NCI-H23 lung = test system: NCI-H23 lung

## O=C(Nc1ccc(-c2nc(-c3cccc(O)c3)c(-c3ccnc(Br)c3)[nH]2)cc1)c1ccccc1
786-0 renal
  GI50: 1080 nM
  TGI: 4.03 µM
A498 renal
  GI50: 1660 nM
  TGI: 4.53 µM
A549 NSCLC
  GI50: 2950 nM
  TGI: > 100 µM
ACHN renal
  GI50: 2430 nM
  TGI: 7.42 µM
BT-549 breast
  GI50: 1800 nM
  TGI: 5.79 µM
CAKI-1 renal
  GI50: 1980 nM
  TGI: 5.8 µM
CCRF-CEM leukemia
  GI50: 1320 nM
  TGI: > 100 µM
COLO 205 colon
  GI50: 1990 nM
  TGI: 4.84 µM
DU-145 prostate
  GI50: 2760 nM
  TGI: 8.74 µM
EKVX NSCLC
  GI50: 2140 nM
  TGI: 6.19 µM
HCC-2998 colon
  GI50: 2270 nM
  TGI: 6.37 µM
HCT-116 colon
  GI50: 2260 nM
  TGI: 7.6 µM
HCT-15 colon
  GI50: 2010 nM
  TGI: 7.29 µM
HL-60(TB) leukemia
  GI50: 1370 nM
  TGI: 6.82 µM
HOP-62 NSCLC
  GI50: 2540 nM
  TGI: 9.05 µM
HOP-92 NSCLC
  GI50: 1840 nM
  TGI: 4.73 µM
HS 578T breast
  GI50: 308 nM
  TGI: 946 nM
HT29 colon
  GI50: 2850 nM
  TGI: > 100 µM
IGROV1 ovarian
  GI50: 2620 nM
  TGI: 6.53 µM
K-562 leukemia
  GI50: 2120 nM
  TGI: > 100 µM
KM12 colon
  GI50: 2440 nM
  TGI: 7.13 µM
LOX IMVI melanoma
  GI50: 1520 nM
  TGI: 3.95 µM
MALME-3M melanoma
  GI50: 1830 nM
  TGI: 4.71 µM
MDA-MB-231 breast
  GI50: 2590 nM
  TGI: 17.1 µM
MOLT-4 leukemia
  GI50: 2000 nM
  TGI: 7.48 µM
NCI-H226 lung
  GI50: 2330 nM
  TGI: 6.53 µM
NCI-H23 lung
  GI50: 2040 nM
  TGI: 4.78 µM
